Our source for the IC50, viability and Activity values is ChEMBL document CHEMBL3102738, “Synthesis and biological evaluation of nitric oxide-donating analogues of sulindac for prostate cancer treatment” (Bioorg Med Chem, 2014).

For experiment [1], the system named is PC-3. Put plainly: Cytotoxicity against human PC3 cells after 72 hrs by crystal violet method. To be noted: PC-3, 72 h. In kind it is functional, cell-based.
The test system of experiment [2] is PC-3. In words: Cytotoxicity against human PC3 cells assessed as cell viability at 50 uM after 72 hrs by crystal violet method (reference value: 95.69 +/- 7.66%). To be noted: PC-3, 72 h, read-out: Activity. Format: functional.
Experiment [3] concerns PC-3. Put plainly: Cytotoxicity against human PC3 cells assessed as cell viability at 50 uM after 48 hrs by crystal violet method (reference value: 100.87 +/- 4.87%). Particulars: PC-3, 48 h, read-out: Activity. In kind it is functional.
The subject of experiment [4] is PC-3. Put plainly: Cytotoxicity against human PC3 cells assessed as cell viability at 50 uM after 24 hrs by crystal violet method (reference value: 99.09 +/- 9.87%). Format: functional. To be noted: PC-3, 24 h, read-out: Activity.
The subject of experiment [5] is PC-3. In words: Cytotoxicity against human PC3 cells at 0.05 to 0.5 uM after 72 hrs by crystal violet method.

Activity calls are given as the source filed them. No cut-off for these calls is given here.

For the compound `CC1=C(CC(=O)OCCOCCOc2no[n+]([O-])c2S(=O)(=O)c2ccccc2)c2cc(F)ccc2/C1=C\c1ccc([S+](C)[O-])cc1` (centres undefined), it took 26 µM to reach half-maximal inhibition with PC-3 [1] (IC50). Besides, the viability at 50 µM with PC-3 [2], with PC-3 [3] and in the experiment on PC-3 [4] was 0% in each case.
Turning to `CC1=C(CC(=O)NCCOC(=O)/N=c2/c[n+](-c3ccccc3)[n-]o2)c2cc(F)ccc2/C1=C\c1ccc([S+](C)[O-])cc1` (centres undefined), the figures for the viability at 50 µM in the experiment on PC-3 [2], in the experiment with PC-3 [3] and with PC-3 [4] were 41.4%, 46.4% and 76.7%, respectively. Further, the result in the experiment on PC-3 [5] was inactive.
The corresponding values for `CC1=C(CC(=O)NCCOC(=O)/N=c2/c[n+](-c3ccccc3)[n-]o2)c2cc(F)ccc2/C1=C\c1ccc(S(C)(=O)=O)cc1` are 37.3%, 45.9%, 76.5% and “inactive”.
Taken in the same sequence, the figures for `CC1=C(CC(=O)NCCNC(=O)/N=c2/c[n+](-c3ccccc3)[n-]o2)c2cc(F)ccc2/C1=C\c1ccc([S+](C)[O-])cc1` (centres undefined) were 36.3%, 46.7%, 74% and “inactive”.
The corresponding values for `CC1=C(CC(=O)NCCNC(=O)/N=c2/c[n+](-c3ccccc3)[n-]o2)c2cc(F)ccc2/C1=C\c1ccc(S(C)(=O)=O)cc1` are 55.5%, 58.2%, 86.1% and “inactive”.
For the compound `CSc1ccc(/C=C2/C(C)=C(CC(=O)OCCCOc3no[n+]([O-])c3S(=O)(=O)c3ccccc3)c3cc(F)ccc32)cc1`, the IC50 (commonly the concentration at which inhibition is half-maximal) in the experiment on PC-3 [1] turned out to be 48.6 µM. Besides, the viability at 50 µM with PC-3 [2] was 15.7%; with PC-3 [3] it was 21.2%; with PC-3 [4] it was 34.9%.
With `CSc1ccc(/C=C2/C(C)=C(CC(=O)NCCOC(=O)/N=c3/c[n+](-c4ccccc4)[n-]o3)c3cc(F)ccc32)cc1`, the viability at 50 µM is 17.7% in the experiment on PC-3 [2], 27.1% with PC-3 [3] and 57.6% in the experiment on PC-3 [4]. For the same compound, in the experiment with PC-3 [5], the outcome was inactive.
`CC1=C(CC(=O)OCCOc2no[n+]([O-])c2S(=O)(=O)c2ccccc2)c2cc(F)ccc2/C1=C\c1ccc([S+](C)[O-])cc1` (centres undefined): the IC50 in the experiment with PC-3 [1] came out at 27.9 µM. For the same compound, the viability at 50 µM in the experiment with PC-3 [2], in the experiment with PC-3 [3] and in the experiment with PC-3 [4] was 0% in each case.
Regarding `CSc1ccc(/C=C2/C(C)=C(CC(=O)NCCNC(=O)/N=c3/c[n+](-c4ccccc4)[n-]o3)c3cc(F)ccc32)cc1`, the viability at 50 µM was 21.3% with PC-3 [2], 34.7% in the experiment on PC-3 [3] and 66.5% in the experiment with PC-3 [4]. Besides, in the experiment on PC-3 [5], the result was inactive.
The corresponding values for `CC1=C(CC(=O)/N=c2\c[n+](-c3ccccc3)[n-]o2)c2cc(F)ccc2/C1=C\c1ccc([S+](C)[O-])cc1` (centres undefined) are 20.6%, 29.8%, 64.6% and “inactive”.
In the case of `CC1=C(CC(=O)OCCCCO[N+](=O)[O-])c2cc(F)ccc2/C1=C\c1ccc(S(C)(=O)=O)cc1`, the values for the viability at 50 µM with PC-3 [2], in the experiment on PC-3 [3] and with PC-3 [4] were 54.7%, 52.9% and 68.7%, respectively.
The corresponding values for `CSc1ccc(/C=C2/C(C)=C(CC(=O)OCC#CCOc3no[n+]([O-])c3S(=O)(=O)c3ccccc3)c3cc(F)ccc32)cc1` are 14.9%, 20.8% and 25.4%.
Taken in the same sequence, the figures for `CC1=C(CC(=O)OCC#CCOc2no[n+]([O-])c2S(=O)(=O)c2ccccc2)c2cc(F)ccc2/C1=C\c1ccc([S+](C)[O-])cc1` (centres undefined) were 0%, 0% and 0%.
